One assay relates to 786-O. Kind of assay: MTT cell viability assay, 786-O. It counts as cell-based, human. The following applies: Homo sapiens, 786-0, 72 h, Kidney, 3 days culture. The method, then:
(§1) 26 cancer cell lines were grown in normal growth medium in the presence of different concentrations Icaritin or Desmethylicaritin. After culture for 3 days, the cell viability was then measured by an MTT assay. […] Some EC50s were lower than 10 uM for these two compounds. […] Whereas, normal human mammary gland epithelial cells (MCF10A) were not sensitive to Icaritin and Desmethylicaritin. These cells grew well when treated with these two compounds at a concentration of 50 uM.

The next assay relates to MCF-7. Kind of assay: MTT cell viability assay, MCF-7. It counts as cell-based, human. The settings on record: Homo sapiens, MCF7, 72 h, MCF-7, Breast, 3 days culture. The method, then: as §1
In general terms: Tetrazolium assays rely on reduction of a dye to a coloured formazan, in cell work by metabolically active cells.

For another assay, the system named is D145. Kind of assay: MTT cell viability assay, D145. The assay is classed as cell-based, human. The settings on record: Homo sapiens, 72 h, D145, Prostate, 3 days culture. The procedure:
as §1

Another assay deals with Mid PaCa-2. Kind of assay: MTT cell viability assay, Mid PaCa-2. It counts as cell-based, human. The settings on record: Homo sapiens, 72 h, Mid PaCa-2, Pancreas, 3 days culture. The procedure:
as §1

In another assay the test system is U-251. Put plainly: MTT cell viability assay, U-251. The assay is classed as cell-based, human. The settings on record: Homo sapiens, 72 h, U-251, Glioblastoma, 3 days culture. The method, then: as §1
For the next assay, the system named is PC3. Put plainly: MTT cell viability assay, PC3. It counts as cell-based, human. The following applies: Homo sapiens, PC-3, 72 h, PC3, Prostate, 3 days culture. The procedure: as §1
Another assay concerns Jurkat T cell. Put plainly: MTT cell viability assay, Jurkat T cell. The following applies: Homo sapiens, 72 h, Leukemia, 3 days culture. It counts as cell-based, human. The method, then: as §1
The test system of assay [1] is LNCaP cells and MDA-MB-231 cells. Kind of assay: Synthesis of lipid classes in cancer cells. The assay is classed as cell-based, human. The procedure: Icaritin and Desmethylicaritin decrease Lipogenesis in Prostate and Breast Cancer cells via inhibition of fatty acid synthase (FAS) Activity. Protein extracts from LNCaP cells, which had been ^14C-labeled with malonyl-CoA, were pretreated with these two compounds. A concentration of 0.5 μM Icaritin or Desmethylicaritin reduced the in vitro enzymatic FAS activity to less than 50%. […] Consistent with their FAS inhibitory effect, inhibition of lipogenesis by Icaritin and Desmethylicaritin affected the synthesis of phospholipids (including phosphatidylcholine, phosphatidylethanolamine, phosphatidylinositol, phosphatidylserine, and sphingomyelin) and of triglycerides in LNCaP cells and MDA-MB-231 cells. […] Cholesterol synthesis, however, accounts for less than 10% of the total lipogenic activity in LNCaP and MDA-MB-231 cancer cells, whereas ˜75 and 15% of the lipogenic activity in these cells represents phospholipid and triglyceride synthesis, respectively.

A further assay concerns IGROV1. Put plainly: MTT cell viability assay, IGROV1. The assay is classed as cell-based, human. The settings on record: Homo sapiens, IGROV-1, 72 h, IGROV1, Ovary, 3 days culture. The method, then:
as §1

The next assay deals with SKOV3. Put plainly: MTT cell viability assay, SKOV3. It counts as cell-based, human. The following applies: Homo sapiens, SK-OV-3, 72 h, SKOV3, Ovary, 3 days culture. The method, then: as §1
The next assay relates to CCL-225. Kind of assay: MTT cell viability assay, CCL-225. The assay is classed as cell-based, human. The settings on record: Homo sapiens, 72 h, CCL-225, Colon, 3 days culture. The method, then:
as §1

A further assay relates to MDA-MB-435. Kind of assay: MTT cell viability assay, MDA-MB-435. The assay is classed as cell-based, human. The settings on record: Homo sapiens, 72 h, MDA-MB-435, Breast, 3 days culture. The procedure: as §1
The next assay concerns NCI-H23. Kind of assay: MTT cell viability assay, NCI-H23. It counts as cell-based, human. The settings on record: Homo sapiens, 72 h, NCI-H23, Lung, 3 days culture. The method, then: as §1
Assay [2] concerns LNCaP prostate cancer cells. Put plainly: Lipogenesis: incorporation of 2-14C-labeled acetate into cellular lipids. It counts as cell-based. The settings on record: Homo sapiens, 5 h, 2-14C-acetate incorporation. The method, then:
To investigate the ability of Icaritin and Desmethylicaritin to inhibit lipogenesis, LNCaP prostate cancer cells were treated with different concentrations of Icaritin and Desmethylicaritin for 5 h, and incorporation of 2-^14C-labeled acetate into cellular lipids was quantitated. Both of Icaritin and Desmethylicaritin inhibited lipogenesis by more than 50% at a concentration of 0.5 uM. Higher concentrations further reduced lipogenesis in a dose-dependent way. A further decline was observed after 24 h of exposure.

Assay [3] deals with FAS protein levels in LNCaP cells. Kind of assay: Western blot analysis for FAS protein levels. It counts as cell-based, human. For orientation: Immunoblotting shows a protein as a band on a membrane.
The next assay has as its system HCT-116. Put plainly: MTT cell viability assay, HCT-116. The assay is classed as cell-based, human. The settings on record: Homo sapiens, 72 h, HCT-116, Colon, 3 days culture. The method, then:
as §1

The subject of the next assay is MCF-10a. Put plainly: MTT cell viability assay, MCF-10a normal breast epithelial cells. The assay is classed as cell-based, human. The procedure: as §1

The structures appear in SMILES notation. pIC50: −log10 of the molar value. Where only a bound is given, the exact number is not on record here.

What is called pIC50 is the negative decadic logarithm of the IC50, by convention in mol/L. Low values mean a high IC50, high ones a low IC50. The inhibition is the drop in the measured response relative to a control, in per cent. Higher therefore signals strong suppression. `COc1ccc(-c2oc3c(CC=C(C)C)c(O)cc(O)c3c(=O)c2O)cc1` [Icaritin]: the pIC50 is 4.98 in the assay with 786-O; 4.74 in the assay with MCF-7; 5.03 with D145; 5.09 in the assay with Mid PaCa-2; 5.15 in the assay on U-251; 5.03 in the assay on PC3. Further, the pIC50 is 5.29 with Jurkat T cell; 4.96 in the assay with IGROV1; 5.01 in the assay on SKOV3; 5.06 in the assay with CCL-225; 4.99 in the assay with MDA-MB-435; 5.22 in the assay on NCI-H23. The pIC50 is 5.19 in the assay on HCT-116 and less than 4.30 in the assay with MCF-10a (Homo sapiens, 72 h, MCF-10a, Normal breast epithelial cells, 3 days culture, MTT). Also, the synthesis of cholesterol entry in [1] (LNCaP and MDA-MB-231 cells) is “decreased”. For the same compound, in assay [1] (LNCaP cells and MDA-MB-231 cells), the “synthesis of phospholipids and of triglycerides” value is given as “affected”. This compound gave an inhibition at 0.5 µM in assay [2] greater than 50%. For the same compound, the “FAS protein levels (Western blot)” value in assay [3] is given as “did not influence”. Also, the “sensitivity of normal human mammary gland epithelial cells (MCF10A)” value with MCF-10a (cells grew well at 50 uM) was “not sensitive”.

These data come from US20080214844A1, “Icaritin and desmethylicaritin as anti-cancer agents” (priority 2007, published 2008).
